Data as given in ChEMBL document CHEMBL5034004, “Discovery of M3 Antagonist-PDE4 Inhibitor Dual Pharmacology Molecules for the Treatment of Chronic Obstructive Pulmonary Disease” (J Med Chem, 2021).

What was measured:
[1] = biological target: Muscarinic acetylcholine receptor M3 (Homo sapiens, UniProt P20309); assay: Displacement of [3H]-N-methyl Scopolamine Chloride from human M3 receptor membranes incubated for 2 hrs by scintillation counting analysis; assay type: cell membranes, Cell membrane
Chain of Muscarinic acetylcholine receptor M3 (Homo sapiens, UniProt P20309) (P20309 whole entry): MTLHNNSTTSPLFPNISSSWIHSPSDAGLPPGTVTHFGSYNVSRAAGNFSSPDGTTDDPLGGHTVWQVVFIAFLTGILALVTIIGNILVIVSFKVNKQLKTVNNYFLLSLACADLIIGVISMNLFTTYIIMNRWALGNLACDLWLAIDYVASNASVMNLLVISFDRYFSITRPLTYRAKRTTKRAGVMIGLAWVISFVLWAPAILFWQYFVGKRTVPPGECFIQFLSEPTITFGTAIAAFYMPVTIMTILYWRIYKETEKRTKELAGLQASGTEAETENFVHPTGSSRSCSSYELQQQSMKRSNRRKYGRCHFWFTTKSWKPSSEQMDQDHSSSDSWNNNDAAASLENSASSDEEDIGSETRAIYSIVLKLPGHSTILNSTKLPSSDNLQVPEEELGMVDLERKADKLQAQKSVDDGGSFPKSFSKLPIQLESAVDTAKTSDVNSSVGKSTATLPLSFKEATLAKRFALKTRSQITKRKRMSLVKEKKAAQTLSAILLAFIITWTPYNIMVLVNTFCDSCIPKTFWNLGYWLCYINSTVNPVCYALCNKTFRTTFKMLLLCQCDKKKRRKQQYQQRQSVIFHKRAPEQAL

[2] = Antiinflammatory activity in human PBMCs assessed as inhibition of LPS-induced TNF-alpha release measured after 18 hrs by ELISA; assay type: functional, tissue-based, PBMC; conditions: for IC50: Homo sapiens, PBMC, 18 h; for pIC50: pbmc
[3] = Antagonist activity at muscarinic M3 receptor in guinea pig trachea assessed as inhibition of carbachol-induced contraction; assay type: tissue-based, Cavia porcellus
[4] = biological target: 3',5'-cyclic-AMP phosphodiesterase 4B (Homo sapiens, UniProt Q07343); assay: Inhibition of human recombinant PDE4B2 assessed as […] in cAMP level incubated for 2 hrs by LANCE Ultra cAMP TR-FRET assay
Chain of 3',5'-cyclic-AMP phosphodiesterase 4B (Q07343 whole entry): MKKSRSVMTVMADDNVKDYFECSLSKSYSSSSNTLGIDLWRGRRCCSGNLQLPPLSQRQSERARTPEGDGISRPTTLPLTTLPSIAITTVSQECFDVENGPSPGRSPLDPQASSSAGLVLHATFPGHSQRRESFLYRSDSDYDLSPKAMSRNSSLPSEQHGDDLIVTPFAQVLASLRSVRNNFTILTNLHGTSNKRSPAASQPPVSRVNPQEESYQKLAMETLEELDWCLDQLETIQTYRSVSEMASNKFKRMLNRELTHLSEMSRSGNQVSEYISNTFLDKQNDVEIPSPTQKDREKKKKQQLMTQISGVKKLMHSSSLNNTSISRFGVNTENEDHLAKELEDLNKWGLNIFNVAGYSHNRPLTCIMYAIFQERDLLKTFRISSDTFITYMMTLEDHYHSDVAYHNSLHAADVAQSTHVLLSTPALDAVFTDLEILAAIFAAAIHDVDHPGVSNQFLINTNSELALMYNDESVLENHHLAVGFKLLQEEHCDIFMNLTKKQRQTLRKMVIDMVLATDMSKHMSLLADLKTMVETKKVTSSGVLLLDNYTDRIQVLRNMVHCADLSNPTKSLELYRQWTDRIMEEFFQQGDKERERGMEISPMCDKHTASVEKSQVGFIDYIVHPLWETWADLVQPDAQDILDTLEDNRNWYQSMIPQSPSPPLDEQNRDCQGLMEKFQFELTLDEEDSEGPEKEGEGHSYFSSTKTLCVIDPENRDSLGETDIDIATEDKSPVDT

[5] = biological target: 3',5'-cyclic phosphodiesterase; assay: Inhibition of PDE4 in human U-937 cells assessed as […] in cAMP level by LANCE cAMP Assay; assay type: cell-based
[6] = Kinetic solubility of compound in PBS at pH 7.4 […] incubated for 2 hrs by LC-UV and LC-MS analysis; assay type: physicochemical; conditions: read-out: Kinetic_solubility
[7] = biological target: Muscarinic acetylcholine receptor M3 (Rattus norvegicus, UniProt P08483); assay: Antagonist activity at muscarinic M3 receptor in rat trachea assessed as inhibition of carbachol-induced contraction; assay type: functional, tissue-based
Chain of Muscarinic acetylcholine receptor M3 (Rattus norvegicus, UniProt P08483) (P08483 whole entry): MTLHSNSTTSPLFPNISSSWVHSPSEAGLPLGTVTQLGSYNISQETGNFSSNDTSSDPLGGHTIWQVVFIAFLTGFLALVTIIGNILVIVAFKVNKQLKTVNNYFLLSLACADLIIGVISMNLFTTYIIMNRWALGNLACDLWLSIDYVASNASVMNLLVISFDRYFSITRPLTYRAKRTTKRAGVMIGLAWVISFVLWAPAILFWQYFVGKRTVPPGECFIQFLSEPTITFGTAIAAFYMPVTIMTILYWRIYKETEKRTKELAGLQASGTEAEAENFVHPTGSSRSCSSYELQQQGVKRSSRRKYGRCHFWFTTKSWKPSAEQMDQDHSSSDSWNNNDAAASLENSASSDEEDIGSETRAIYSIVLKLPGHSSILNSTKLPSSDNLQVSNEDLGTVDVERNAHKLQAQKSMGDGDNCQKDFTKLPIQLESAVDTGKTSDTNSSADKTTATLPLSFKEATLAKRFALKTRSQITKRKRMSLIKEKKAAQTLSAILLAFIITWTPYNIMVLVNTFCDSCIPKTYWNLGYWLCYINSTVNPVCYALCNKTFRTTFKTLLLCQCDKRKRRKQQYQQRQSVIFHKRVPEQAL

| Structure (SMILES) | Ki [1] | IC50 [2] | pIC50 [3] | IC50 [4] | further results |
| --- | --- | --- | --- | --- | --- |
| COc1ccc([C@H](Cc2c(Cl)c[n+]([O-])cc2Cl)OC(=O)c2ccc(CN(C(=O)O[C@H]3CN4CCC3CC4)c3cccnc3)s2)cc1OC | 7.94 nM | – | – | – | – |
| COc1ccc([C@H](Cc2c(Cl)c[n+]([O-])cc2Cl)OC(=O)c2ccc(CN(C(=O)O[C@H]3CN4CCC3CC4)c3ccccc3)cc2F)cc1OC | 0.158 nM | 0.126 nM | 8.6 | 2.51 nM | – |
| COc1ccc([C@H](Cc2c(Cl)c[n+]([O-])cc2Cl)OC(=O)c2ccc(F)c(CN(C(=O)O[C@H]3CN4CCC3CC4)c3ccccc3)c2)cc1OC | 0.2 nM | 2 nM | 9 | 7.94 nM | – |
| COc1ccc([C@H](Cc2c(Cl)c[n+]([O-])cc2Cl)OC(=O)Cc2ccc(CN(C(=O)O[C@H]3CN4CCC3CC4)c3ccccc3)cc2)cc1OC | 0.316 nM | – | – | 10 nM | – |
| COc1ccc([C@H](Cc2c(Cl)c[n+]([O-])cc2Cl)OC(=O)c2ccc(CN(C(=O)O[C@H]3CN4CCC3CC4)c3ccccc3)cc2)cc1OC | 0.158 nM | 2.51 nM | 8.7 | 2 nM | – |
| COc1ccc([C@H](Cc2c(Cl)c[n+]([O-])cc2Cl)OC(=O)c2ccc(CN(C(=O)O[C@H]3CN4CCC3CC4)c3cccc(C(F)F)c3)s2)cc1OC | 3.16 nM | 0.2 nM | 8.8 | 0.316 nM | – |
| O=C(O[C@@H](Cc1c(Cl)c[n+]([O-])cc1Cl)c1ccc(OC(F)F)c(OCC2CC2)c1)c1cccc(NC(C(=O)O[C@H]2CN3CCC2CC3)c2ccccc2)c1 (some centres not stated) | 0.794 nM | – | < 6 | – | pIC50 [5]: 9 |
| O=C(O[C@@H](Cc1c(Cl)c[n+]([O-])cc1Cl)c1ccc(OC(F)F)c(OCC2CC2)c1)c1cccc(CN(C(=O)O[C@H]2CN3CCC2CC3)c2ccccc2)c1 | 1.26 nM | – | 6.5 | – | pIC50 [5]: 9.9 |
| O=C(O[C@@H](Cc1c(Cl)c[n+]([O-])cc1Cl)c1ccc(OC(F)F)c(OCC2CC2)c1)c1cccc(S(=O)(=O)NC(C(=O)O[C@H]2CN3CCC2CC3)c2ccccc2)c1 (some centres not stated) | 1.26 nM | – | 7.3 | – | pIC50 [5]: 10 |
| COc1ccc([C@H](Cc2c(Cl)c[n+]([O-])cc2Cl)OC(=O)c2ccc(CN(C(=O)O[C@H]3CN4CCC3CC4)c3cccc(F)c3)s2)cc1OC | 0.2 nM | 0.631 nM | 8.1 | 1 nM | – |
| CCOc1cc([C@H](Cc2c(Cl)c[n+]([O-])cc2Cl)OC(=O)c2ccc(CN(C(=O)O[C@H]3CN4CCC3CC4)c3ccccc3F)s2)ccc1OC(F)F | 0.316 nM | – | 8.3 | – | solubility kinetic at 2 h [6]: < 5 µM |
| CC(C)Oc1cc([C@H](Cc2c(Cl)c[n+]([O-])cc2Cl)OC(=O)c2ccc(CN(C(=O)O[C@H]3CN4CCC3CC4)c3ccccc3F)s2)ccc1OC(F)F | 0.316 nM | – | 7.5 | – | solubility kinetic at 2 h [6]: < 5 µM |
| COc1ccc([C@H](Cc2c(Cl)c[n+]([O-])cc2Cl)OC(=O)c2ccc(CN(C(=O)O[C@H]3CN4CCC3CC4)c3nccs3)s2)cc1OC | 0.794 nM | 0.501 nM | 8.4 | 0.631 nM | – |
| COc1ccc([C@H](Cc2c(Cl)c[n+]([O-])cc2Cl)OC(=O)c2ccc(CN(C(=O)O[C@H]3CN4CCC3CC4)c3cccc(O)c3)s2)cc1OC | 0.316 nM | 0.398 nM | 9 | 0.794 nM | – |
| O=C(O[C@@H](Cc1c(Cl)c[n+]([O-])cc1Cl)c1ccc(OC(F)F)c(OCC2CC2)c1)c1cccc(CNC(C(=O)O[C@H]2CN3CCC2CC3)c2ccccc2)c1 (some centres not stated) | 0.631 nM | – | 7.6 | – | pIC50 [5]: 9.5 |
| COc1ccc([C@H](Cc2c(Cl)c[n+]([O-])cc2Cl)OC(=O)c2cccc(NC(C(=O)O[C@H]3CN4CCC3CC4)c3ccccc3)c2)cc1OC (some centres not stated) | 0.398 nM | – | 7.7 | – | pIC50 [5]: 9.8 |
| COc1ccc([C@H](Cc2c(Cl)c[n+]([O-])cc2Cl)OC(=O)c2cccc(CN(C(=O)O[C@H]3CN4CCC3CC4)c3ccccc3)c2)cc1OC | 0.316 nM | 5.01 nM | 9.2 | 6.31 nM | pIC50 [5]: 9 |
| COc1cc([C@H](Cc2c(Cl)c[n+]([O-])cc2Cl)OC(=O)c2ccc(CN(C(=O)O[C@H]3CN4CCC3CC4)c3ccccc3F)s2)ccc1OC(F)F | 0.251 nM | – | 8.2 | – | solubility kinetic at 2 h [6]: < 5 µM |
| O=C(O[C@@H](Cc1c(Cl)c[n+]([O-])cc1Cl)c1ccc(OC(F)F)c(OCC2CC2)c1)c1ccc(CN(C(=O)O[C@H]2CN3CCC2CC3)c2ccccc2F)s1 | 0.2 nM | – | 8.2 | – | solubility kinetic at 2 h [6]: < 5 µM |
| COc1ccc([C@H](Cc2c(Cl)c[n+]([O-])cc2Cl)OC(=O)c2cccc(S(=O)(=O)NC(C(=O)O[C@H]3CN4CCC3CC4)c3ccccc3)c2)cc1OC (some centres not stated) | 0.631 nM | – | 8.2 | – | pIC50 [5]: 9.6 |

| Structure (SMILES) | Ki [1] | IC50 [2] | pIC50 [3] | IC50 [4] | further results |
| --- | --- | --- | --- | --- | --- |
| COc1ccc([C@H](Cc2c(Cl)c[n+]([O-])cc2Cl)OC(=O)c2cccc(CNC(C(=O)O[C@H]3CN4CCC3CC4)c3ccccc3)c2)cc1OC (stereo in doubt; 86a) | 0.398 nM | – | 8.2 | – | pIC50 [5]: 9.5 |
| COc1ccc([C@H](Cc2c(Cl)c[n+]([O-])cc2Cl)OC(=O)c2cccc(CNC(C(=O)O[C@H]3CN4CCC3CC4)c3ccccc3)c2)cc1OC (stereo in doubt; 89) | 0.158 nM | 1.26 nM | 9 | 3.98 nM | – |
| COc1ccc([C@H](Cc2c(Cl)c[n+]([O-])cc2Cl)OC(=O)c2cccc(CNC(C(=O)O[C@H]3CN4CCC3CC4)c3ccccc3)c2)cc1OC (stereo in doubt; 90) | 0.2 nM | – | 9.1 | 7.94 nM | pIC50 [2]: 8.6 |
| COc1ccc([C@H](Cc2c(Cl)c[n+]([O-])cc2Cl)OC(=O)c2ccc(CNC(C(=O)O[C@H]3CN4CCC3CC4)c3ccccc3F)s2)cc1OC (stereo in doubt; 91b) | 0.1 nM | 1 nM | 8.6 | 0.631 nM | – |
| COc1ccc([C@H](Cc2c(Cl)c[n+]([O-])cc2Cl)OC(=O)c2ccc(CN(C)C(C(=O)O[C@H]3CN4CCC3CC4)c3ccccc3)s2)cc1OC (stereo in doubt; 91c) | 0.631 nM | 3.16 nM | – | 2 nM | – |
| COc1ccc([C@H](Cc2c(Cl)c[n+]([O-])cc2Cl)OC(=O)c2ccc(CNC(C(=O)OC3C[C@H]4CC[C@H](C3)N4C)c3ccccc3)s2)cc1OC (stereo in doubt; 91d) | 0.501 nM | 2.51 nM | – | 1 nM | IC50 [7]: 10 nM |
| COc1ccc([C@H](Cc2c(Cl)c[n+]([O-])cc2Cl)OC(=O)c2ccc(CNC(C(=O)OC3CCN(C)CC3)c3ccccc3)s2)cc1OC (stereo in doubt; 91e) | 10 nM | 1.58 nM | – | 1 nM | IC50 [7]: 20 nM |
| COc1ccc([C@H](Cc2c(Cl)c[n+]([O-])cc2Cl)OC(=O)c2ccc(CNC(C(=O)O[C@@H]3CCN(C)C3)c3ccccc3)s2)cc1OC (stereo in doubt; 91f) | 7.94 nM | 3.98 nM | – | 3.16 nM | IC50 [7]: 1 nM |
| COc1ccc([C@H](Cc2c(Cl)c[n+]([O-])cc2Cl)OC(=O)c2ccc(CNC(C(=O)OC[C@H]3CN4CCC3CC4)c3ccccc3)s2)cc1OC (stereo in doubt; 91g) | – | 3.16 nM | – | – | IC50 [7]: 20 nM |
| COc1ccc([C@H](Cc2c(Cl)c[n+]([O-])cc2Cl)OC(=O)c2ccc(CNC(C(=O)OCC3CCN(C)CC3)c3ccccc3)s2)cc1OC (stereo in doubt; 91h) | – | – | – | – | pIC50 [2]: 8.4 |
| COc1ccc([C@H](Cc2c(Cl)c[n+]([O-])cc2Cl)OC(=O)c2ccc(CNC(C(=O)OC[C@H]3CCN3C)c3ccccc3)s2)cc1OC (stereo in doubt; 91i) | – | – | – | – | pIC50 [2]: 8.1; IC50 [7]: 20 nM |
| COc1ccc([C@H](Cc2c(Cl)c[n+]([O-])cc2Cl)OC(=O)c2ccc(CNC(C(=O)OCCN(C)C)c3ccccc3)s2)cc1OC (stereo in doubt; 91j) | 12.6 nM | 3.16 nM | – | 1 nM | IC50 [7]: 79.4 nM |
| COc1ccc([C@H](Cc2c(Cl)c[n+]([O-])cc2Cl)OC(=O)c2ccc(CNC(C(=O)O[C@H]3CN4CCC3CC4)c3ccccc3F)s2)cc1OC (stereo in doubt; 92b) | 0.158 nM | – | 8.5 | – | pIC50 [2]: 8.9; pIC50 [4]: 9.2 |
| COc1ccc([C@H](Cc2c(Cl)c[n+]([O-])cc2Cl)OC(=O)c2ccc(CN(C)C(C(=O)O[C@H]3CN4CCC3CC4)c3ccccc3)s2)cc1OC (stereo in doubt; 92c) | – | – | – | 3.16 nM | pIC50 [2]: 8.7; pKi [1]: 9.2 |
| COc1ccc([C@H](Cc2c(Cl)c[n+]([O-])cc2Cl)OC(=O)c2ccc(CNC(C(=O)OC3C[C@H]4CC[C@H](C3)N4C)c3ccccc3)s2)cc1OC (stereo in doubt; 92d) | 10 nM | – | – | – | pIC50 [4]: 9 |
| COc1ccc([C@H](Cc2c(Cl)c[n+]([O-])cc2Cl)OC(=O)c2ccc(CNC(C(=O)OC[C@H]3CN4CCC3CC4)c3ccccc3)s2)cc1OC (stereo in doubt; 92g) | – | – | – | – | pIC50 [2]: 8.4; IC50 [7]: 3.16 nM |
| COc1ccc([C@H](Cc2c(Cl)c[n+]([O-])cc2Cl)OC(=O)c2ccc(CNC(C(=O)OCC3CCN(C)CC3)c3ccccc3)s2)cc1OC (stereo in doubt; 92h) | – | – | – | – | pIC50 [2]: 8.8; IC50 [7]: 5.01 nM |
| COc1ccc([C@H](Cc2c(Cl)c[n+]([O-])cc2Cl)OC(=O)c2ccc(CNC(C(=O)OC[C@H]3CCN3C)c3ccccc3)s2)cc1OC (stereo in doubt; 92i) | – | – | – | – | IC50 [7]: 5.01 nM |
| COc1ccc([C@H](Cc2c(Cl)c[n+]([O-])cc2Cl)OC(=O)c2ccc(CNC(C(=O)OCCN(C)C)c3ccccc3)s2)cc1OC (stereo in doubt; 92j) | 0.398 nM | – | – | 0.631 nM | IC50 [7]: 12.6 nM |
